Test results from publication PMC9404989, “Design and Evaluation of Short Bovine Lactoferrin-Derived Antimicrobial Peptides against Multidrug-Resistant Enterococcus faecium” (Antibiotics, 2022).
Values joined by “and” are separate entries in the source; they are usually repeats but may differ in a detail not shown here. Equal values may be shown once. “Also recorded” adds a separate entry of the source. No end group written: not given here.

How the values were obtained:
[1] = system: E. faecium strain C68 primary metabolites; assay: Targeted LC-MS/MS metabolomics; assay type: cell-based, Enterococcus faecium; details: 5L at 2× MIC, 30 min vs control, n = 3
Method: For the metabolomics sample preparation, we used exponential cultures of E. faecium strain C68 grown in BHI media adjusted to OD600 = 0.5. We treated 10 mL of this bacterial culture with 2× MIC of peptide 5L or water (for bacterial control) for 30 min at 37 °C (n = 3, technical replicates). After that, we washed the bacteria 3× times with PBS and stored the pellet at −20 °C. At a later stage, to each cell pellet, we added 0.2 mL of 2-propanol: 100 mM of NH4HCO3, pH 7.4 (1:1 v/v), and sonicated the cells. For spiking, we added 20 µL of IS to each sample and vortexed them. Subsequently, we added 1.0 mL of methanol for deproteinization and cooled the mixture at −20 °C for 10 min. After centrifugation for 10 min at 14,000× g at 4 °C, we transferred the supernatants into glass tubes and dried them under a stream of nitrogen at 40 °C. Finally, we dissolved the residues in 100 µL of water and injected 3 µL of this solution into an LC-MS/MS 8060 system (Shimadzu Scientific Inc., Columbia, MD, USA), equipped with a DUIS source operated in both positive and negative electrospray ionization modes. For the liquid chromatographic analysis, we used the Nexera UPLC system (Shimadzu Scientific Inc., Columbia, MD, USA). We quantitated primary metabolites (~150) following an established LC-MS/MS method.

[2] = system: human red blood cells (hRBCs); assay type: cell-based
Method: We evaluated the ability of the peptide to cause hemoglobin leakage using the method described in [15]. In brief, we washed human erythrocytes (Rockland Immunochemicals (Limerick, Pottstown, PA, USA)) 3× times in an equal volume of PBS and resuspended them as 2% hRBCs solution. We added 90 µL of the blood cells to 10 µL of the peptide solution (10×) in a 96-well microtiter plate (Cat No. 3595, Corning, New York, NY, USA) and incubated the plates at 37 °C for 1 h. Next, we centrifuged the plates at 500× g for 5 min, transferred 60 µL of the supernatant into a fresh 96-well plate, and read the absorbance at 540 nm. We calculated the percent hemolysis considering 100% hemolysis caused by 1% Triton X-100, and 0% on PBS and using the formula for percentage of hemolysis as: (A540 nm in the peptide solution − A540 nm in PBS)/(A540 nm of 1% Triton X-100-treated sample − A540 nm in PBS) × 100.

[3] = system: E. faecium strain C68 on porcine skin; assay: Ex vivo porcine skin infection assay; design: species or system Enterococcus faecium; details: 1 × 10^6 CFU, 4 h treatment
Text: We evaluated the efficacy of designed lactoferrin AMPs in an ex vivo porcine skin model previously described with minor modifications. We first cleaned the shaved porcine skin (Fisher Scientific, Hampton, NH, USA) with 70% ethanol and then water, and glued polyethylene tubing (5 mm) (Nalgene VWR 228-0170, Radnor, PA, USA) to the skin samples with cyanoacrylate glue (Fisher Scientific, Hampton, NH, USA). Using disposable razors, we cut each piece of skin glued to the tube and inserted it into a 12-well tissue culture plate (Falcon, Cat No. 353182). We infected each skin with 1 × 10^6 CFU of exponential or persister E. faecium strain C68 cells in a total volume of 10 µL. Following an incubation of 1 h at 37 °C, we treated the skin with 50 µL with 5L and 6L at concentrations of 10× or 1× MIC. After an additional 4 h of incubation at 37 °C, we washed each tubing well with 250 µL of PBS (pH 7.4) containing 0.05% Triton X-100 to remove bacteria. After serially diluting the bacterial sample, we counted their CFUs.

[4] = system: E. faecium strain C68; assay: Growth inhibition assay; assay type: cell-based, Enterococcus faecium; details: 32 µg/mL, OD600 over 4 h
Method: We cultivated overnight cultures of E. faecium strain C68 in BHI media. We inoculated the bacteria in a fresh BHI medium the next day to achieve the exponential phase and adjusted the bacterial density to 1 × 10^8 CFU/mL. We added 90 µL of this bacterial culture to each well of the microtiter plates (Cat No. 3595, Corning, New York, NY, USA) containing 10 µL of serially diluted 10× peptide solution. We monitored the bacterial growth on a SpectraMax i3x spectrophotometer (Molecular Devices, San Jose, CA, USA) by taking OD600 readings every 10 min for 4 h.

Substance: RRWLWLRRWLWR-NH2 [Peptide 5L]
- Fold change 2-Aminobutryc acid [1]: 0.480 fold
- Fold change 4-Aminobutryc acid [1]: 4.319 fold
- Fold change Adenine [1]: 0.311 fold
- Fold change Adenylsuccinic acid [1]: 0.226 fold
- Fold change Alanine [1]: 0.383 fold
- Fold change Allantoin [1]: 2.67 fold
- Fold change Arginosuccinic acid [1]: 0.204 fold
- Fold change Aspartic acid [1]: 0.197 fold
- Fold change Carbamoyl aspertate [1]: 2.212 fold
- Fold change Citicoline [1]: 0.233 fold
- Fold change Citric acid [1]: 0.244 fold
- Fold change Cobalamine [1]: 2.285 fold
- Fold change Cystathionine [1]: 0.369 fold
- Fold change Cysteine [1]: 0.047 fold
- Fold change Dopa [1]: 0.337 fold
- Fold change Dopamine [1]: 3.107 fold
- Fold change Fumaric acid [1]: 0.387 fold
- Fold change Glutathione [1]: 0.376 fold
- Fold change Guanine [1]: 0.130 fold
- Fold change Guanosine [1]: 0.275 fold
- Fold change Histidine [1]: 0.420 fold
- Fold change Inosine [1]: 0.239 fold
- Fold change Isocitric acid [1]: 0.237 fold
- Fold change Isoleucine [1]: 0.458 fold
- Fold change Kynureine [1]: 2.152 fold
- Fold change Leucine [1]: 0.373 fold
- Fold change Malic acid [1]: 0.392 fold
- Fold change Methionine [1]: 0.175 fold
- Fold change NAD [1]: 0.415 fold
- Fold change Ornitine [1]: 0.378 fold
- Fold change Oxidized glutathione [1]: 0.403 fold
- Fold change Phenylalanine [1]: 0.423 fold
- Fold change Putriscine [1]: 7.197 fold and 7 fold
- Fold change S-Adenosylhomocysteine [1]: 0.267 fold
- Fold change Serine [1]: 0.033 fold and 0.03 fold
- Fold change Serotonin [1]: 2.886 fold
- Fold change Succinic acid [1]: 0.204 fold
- Fold change Symmetric dimethylarginine [1]: 2.347 fold
- Fold change Threonine [1]: 0.384 fold
- Fold change Thymidine [1]: 0.320 fold
- Fold change Tryptophan [1]: 0.178 fold
- Fold change Uridine [1]: 0.228 fold
- Fold change Valine [1]: 0.433 fold
- Fold change Xanthosine [1]: 0.315 fold
- HL50 [2]: 56 µg/mL
- bacterial load reduction, exponential cells, 1× MIC [3]: 1 log
- bacterial load reduction, persister cells, 1× MIC [3]: 1 log
- bacterial load, exponential cells, 10× MIC [3]: effectively eliminated almost all exponential cells
- bacterial load, persister cells, 10× MIC [3]: effectively eliminated all; also recorded: completely eliminated persister cells

Substance: RRWLWRLRWLWR-NH2 [Peptide 6L]
- growth inhibition [4]: inhibited the maximum growth
- HL50 [2]: 34 µg/mL
- bacterial load reduction, exponential cells, 1× MIC [3]: 1.2 logs
- bacterial load reduction, persister cells, 1× MIC [3]: 1 log
- bacterial load, exponential cells, 10× MIC [3]: effectively eliminated almost all exponential cells
- bacterial load, persister cells, 10× MIC [3]: completely eliminated persister cells
